Data published in PMC12278462, “Site-selective arylations of nature-inspired flavonoids or steroidal phenols via C—H or O—H activation” (Journal of Enzyme Inhibition and Medicinal Chemistry, 2025).
Where two headings read alike, the source gives them in different places.

Experiments:
[1] = tested on: SiHa; assay: MTT antiproliferative assay, SiHa; type: cell-based, human; details: Homo sapiens, SiHa, 72 h
[2] = tested on: MDA-MB-231; set-up: method as in PMID 21912610, PMID 28436164; details: cited from earlier work
[3] = tested on: NIH/3T3 mouse fibroblast cell line; assay: MTT assay, tumour selectivity on non-cancerous fibroblasts; type: cell-based; details: Mus musculus
[4] = tested on: C33A; assay: MTT antiproliferative assay, C33A; type: cell-based, human; details: Homo sapiens, C-33-A, 72 h
[5] = tested on: HeLa; assay: MTT antiproliferative assay, HeLa; type: cell-based, human; details: Homo sapiens, HeLa, 72 h
[6] = tested on: MDA-MB-231; assay: MTT antiproliferative assay, MDA-MB-231; type: cell-based, human; details: Homo sapiens
[7] = tested on: MCF-7; assay: MTT antiproliferative assay, MCF-7; type: cell-based, human; details: Homo sapiens
[8] = tested on: MCF-7dox; set-up: method as in PMID 21912610, PMID 28436164; details: MCF-7 adapted to doxorubicin; cited from earlier work

| SMILES | inhibition at 10 µM ([1]; 10 µM) | inhibition at 30 µM ([1]; 30 µM) | IC50 ([1]; read-out: calculated IC50 SiHa) | IC50 [2] | inhibition at 10 µM ([3]; NIH3T3, 10 µM, 72 h) | inhibition at 30 µM ([3]; NIH3T3, 30 µM, 72 h) | IC50 ([3]; NIH3T3, 72 h, read-out: calculated IC50 NIH/3T3) | inhibition at 10 µM ([4]; 10 µM) | inhibition at 30 µM ([4]; 30 µM) | IC50 ([4]; read-out: calculated IC50 C33A) | inhibition at 10 µM ([5]; 10 µM) | inhibition at 30 µM ([5]; 30 µM) | IC50 ([5]; read-out: calculated IC50 HeLa) | inhibition at 10 µM ([6]; MDA-MB-231, 10 µM, 72 h) | inhibition at 30 µM ([6]; MDA-MB-231, 30 µM, 72 h) | IC50 ([6]; MDA-MB-231, 72 h, read-out: calculated IC50 MDA-MB-231) | inhibition at 10 µM ([7]; MCF7, 10 µM, 72 h) | inhibition at 30 µM ([7]; MCF7, 30 µM, 72 h) | IC50 ([7]; MCF7, 72 h, read-out: calculated IC50 MCF-7) | IC50 [8] |
| --- | --- | --- | --- | --- | --- | --- | --- | --- | --- | --- | --- | --- | --- | --- | --- | --- | --- | --- | --- | --- |
| CCCCOC1(c2cc(=O)c3c(O)cc(O)cc3o2)C=CC(=O)C=C1 [compound 10, 1′-O-butyl protoapigenone, reference compound] | 92.2% | 96.3% | 1600 nM | 620 nM | 95.5% | 99.1% | 2270 nM | 98% | 98.5% | 970 nM | 95.7% | 96.2% | 1430 nM | 91.7% | 92.8% | 1060 nM | 87.7% | 93.3% | 3030 nM |  |
| O=C1C=CC(O)(c2cc(=O)c3cc(-c4ccccc4)ccc3o2)C=C1 [compound 11] |  |  |  |  |  |  |  |  |  |  |  |  |  |  |  |  |  |  |  | 1230 nM |
